Laboratory results published in patent US9713608B2, “Method for topically treating actinic keratosis on the trunk (except chest) or extremities with ingenol 3-(3,5-diethylisoxazole-4-carboxylate)” (LEO Laboratories Limited, priority 2013, dated 2017).

Columns and labels:
[1] = tested on: actinic keratosis (AK) lesions; assay: Phase 1 exploratory trial: treatment response of AK lesions (clinical count and Reflectance Confocal Microscopy); type: in vivo, human; settings: for RCM findings in lesions: overall, clinically visible AK lesions and subclinical lesions
Text: To evaluate treatment responses on AKs of the three concentrations of ingenol 3-(3,5-diethylisoxazole-4-carboxylate) gel compared to the ingenol mebutate gel as assessed by reduction in number of clinically visible selected AK lesions eight weeks after treatment.
To evaluate treatment responses on AKs of the three concentrations of ingenol 3-(3,5-diethylisoxazole-4-carboxylate) gel compared to the ingenol mebutate gel as assessed by Reflectance Confocal Microscopy (RCM) scoring of the clinically visible selected AK lesions before and eight weeks after treatment.
(§1) The trial population included 40 subjects at least 18 years of age with 12-16 clinically typical, visible, discrete, non-keratotic AK lesions (referred to as selected AK lesions) suitable for RCM within four separate 25 cm^2 (5×5 cm) selected treatment areas (STAs) on the dorsal aspects of the forearms. Each STA was to be separated by at least 5 cm from other STAs.
Whenever possible, four visible and discrete selected AK lesions are identified within each of the four STAs. However, one STA with three selected AK lesions is acceptable for a subject. The selected AK lesions are assessed by RCM. If a selected AK lesion could not be confirmed as an AK lesion by RCM, another STA with selected AK lesions has to be identified. In addition, each subject is to have one subclinical AK lesion suitable for RCM within each STA (these subclinical AKs are referred to as selected subclinical AK lesions).
Treatment efficacy is included as a secondary endpoint and assessed by change in number of clinically visible AK lesions from baseline to 8 weeks after treatment and change in RCM scores from baseline to 8 weeks after treatment.

[2] = Phase 1 exploratory trial: safety and tolerability of topical gel on forearms of subjects with actinic keratosis; type: in vivo, human; settings: for mean composite LSR scores, time of peak: 8-week trial period; for mean composite LSR scores at Week 8: Week 8, relative to baseline; for number of SAEs of SCC within treated areas: four SAEs in three subjects, about three times more fields treated with ingenol 3-(3,5-diethylisoxazole-4-carboxylate); for most common treatment related AEs: human, in vivo
Text: Local skin reactions (LSRs) occurs sometimes in the treated area. Often LSRs are quantified by a scale evaluating the following types of skin reactions: erythema, flaking/scaling, crusting, swelling, vasiculation/pustulation, and erosion/ulceration which are categorized into categories 0-4 depending on the severity of the reactions.
A Phase 1 exploratory trial evaluating safety and tolerability of topical administration of ingenol 3-(3,5-diethylisoxazole-4-carboxylate) gel, 0.025%, 0.05% and 0.075% compared to ingenol mebutate gel 0.05% applied on two consecutive days to four separate 25 cm^2 treatment areas on the forearms of subjects with actinic keratosis (field therapy). A single-centre, randomised, active controlled, intra-patient controlled, investigator blind trial.
It is presently believed that ingenol 3-(3,5-diethylisoxazole-4-carboxylate) has a higher efficacy and/or milder LSR profile than ingenol mebutate.
This was a phase 1, single-centre, randomised, active controlled, intra-patient controlled, investigator blinded trial with intra-individual comparisons to explore the safety and tolerability of ingenol 3-(3,5-diethylisoxazole-4-carboxylate) gel 0.025%, 0.05%, and 0.075% compared to ingenol mebutate gel 0.05% applied once daily for two consecutive days on the forearms of subjects with AK.
as §1
For each eligible subject, the four STAs are randomised to receive one of four of the investigational product (IP or IPs): • ingenol 3-(3,5-diethylisoxazole-4-carboxylate) gel 0.025% • ingenol 3-(3,5-diethylisoxazole-4-carboxylate) gel 0.05% • ingenol 3-(3,5-diethylisoxazole-4-carboxylate) gel 0.075% • Ingenol mebutate gel 0.05%
Each IP is to be applied to one of the four STAs on each subject according to random assignment on two consecutive days (Day 1 and Day 2). This ensured that all subjects are treated with the four products on both treatment days. The trial consisted of three periods, a screening period, a treatment period, and an observation and follow-up period.
Each IP is applied to one of the four STAs on each subject according to random assignment on two consecutive days (Day 1 and Day 2). The IPs are applied by a specified investigational staff member in the clinical study protocol. Subjects are instructed about post-treatment care and provided with a patient safety and study medication instruction sheet.

dermal tumours = assay: in vivo studies in mice, effects on dermal tumours; settings: compared to ingenol mebutate
Text: The exact mechanism of action of ingenol 3-(3,5-diethylisoxazole-4-carboxylate) continues to be investigated, but it is believed that ingenol 3-(3,5-diethylisoxazole-4-carboxylate) has a dual mechanism of action inducing cell death as well as stimulation of immune response.

[3] = difficult to treat versus more easily treated anatomical regions; cited from earlier work

Structure (SMILES) | change of RCM scores ([1]; baseline to 8 weeks, between the two actives) | RCM findings in lesions [1] | mean composite LSR scores, time of peak [2] | mean composite LSR scores at Week 8 [2] | incidence of AEs inside STAs ([2]; between treatments) | number of SAEs of SCC within treated areas [2] | most common treatment related AEs [2] | events of Bowen's disease inside treated area ([2]; possibly related AE, reclassified to SAE by sponsor) | efficacy in eliminating dermal tumours (dermal tumours) | local skin reactions after a given dose [3]
CCc1noc(CC)c1C(=O)O[C@H]1C(C)=C[C@]23C(=O)[C@@H](C=C(CO)[C@@H](O)[C@]12O)[C@H]1[C@@H](C[C@H]3C)C1(C)C [ingenol 3-(3,5-diethylisoxazole-4-carboxylate)] | no difference | honeycomb pattern of lesions improved, keratosis decreased, and the thickness of stratum corneum and viable epidermis decreased | peaked at Week 1 | below baseline at Week 8 | no difference | Two | pruritus, burning sensation and tenderness | one | more efficacious than ingeno mebutate | 
C/C=C(/C)C(=O)O[C@H]1C(C)=C[C@]23C(=O)[C@@H](C=C(CO)[C@@H](O)[C@]12O)[C@H]1[C@@H](C[C@H]3C)C1(C)C [ingenol mebutate, reference compound] |  | honeycomb pattern of lesions improved, keratosis decreased, and the thickness of stratum corneum and viable epidermis decreased | peaked at Week 1 | below baseline at Week 8 |  | two | pruritus, burning sensation and tenderness |  |  | milder on difficult to treat anatomical regions
